Laboratory results: patent US5444049A, “Peptide compounds derived from boronic acid” (Adir et Compagnie, priority 1993, dated 1995)
pIC50: −log10 of the molar value. Where two headings read alike, the source gives them in different places.

Assays:
[1] = test system: thrombin time of human platelet-poor plasma; assay: Anticoagulant activity: thrombin time in human plasma; type: biochemical; details: for Man CTT2 (concentration which multiplies the thrombin time by 2): human plasma, 2 minutes at 37° C.
Procedure: (§1) In the presence of a standard quantity of thrombin, a normal plasma coagulates in a defined and constant time, termed the thrombin time (TT). Any prolongation of this time reflects an abnormality of fibrin formation (coagulation).
(§2) Sprague-Dawley rats are anesthetized with pentobarbital sodium (60 mg/kg i.p.), the carotid artery is catheterized and blood samples are taken into trisodium citrate solution (0.109M). A platelet-poor plasma is obtained by centrifugation of the blood samples (3000 g, 15 minutes). Samples of venous blood are also taken from humans at the bend of the arm. Anticoagulation of the samples and preparation of platelet-poor plasma are identical to those carried out with rat blood.
(§3) The thrombin time is obtained with Prest thrombin reagent and determined automatically using a coagulometer.
(§4) The antagonist or the solvent (10 μl) is added to the plasma (90 μl) and then incubated for 2 minutes at 37° C. 100 µl of thrombin are added as the chronometer is started.
(§5) Under these conditions, the TT values obtained in the control plasma are of the order of 30 seconds in rats and 20 seconds in humans. The activity of an antagonist is evaluated by its capacity to prolong this thrombin time relative to the control.
(§6) Under these conditions, the compounds of the invention permit a prolongation of the thrombin time of 50-fold and more. The effect of the inhibitors is measured, and the concentration which multiplies the thrombin time by 2 (CTT2) is determined.

[2] = biological target: T1, human thrombin (Homo sapiens, UniProt P00734); assay: Inhibition of human thrombin (fibrinogen or S2238 substrate); type: biochemical; details: for pIC50: 20° C.; for selectivity with respect to the serine proteases of coagulation and of fibrinolysis compared with DUP 714: thrombin versus other serine proteases; for potency on human thrombin compared with DUP 714: with respect to human fibrinogen
T1 construct: human thrombin (Sigma, specific activity 3230 NIHU/mg); purchased Sigma
Procedure: To evaluate in vitro the inhibitory activity of the boro-arginine products with respect to human thrombin (Sigma, specific activity 3230 NIHU/mg), purified human fibrinogen ([…], Stago) (Fg) or the chromogenic substrate H-D-Phe-Pip-Arg-pNa ([…], S2238, Kabi) was added to a given quantity of thrombin (0.7 or 2 nM) incubated beforehand with or without the inhibitor under test (20° C., 10 minutes).
(§7) Inhibitors, enzymes and substrates are diluted in the same buffer ([…] buffer, pH 7.4, containing 0.12M sodium chloride and 0.05% of bovine serum albumin), and then distributed in a polystyrene microplate in a volume of […].
(§8) The fibrin formed by thrombin or by the para-nitroaniline liberated by the action of the serine protease is measured spectrophotometrically at 405 nm after 15 to 30 minutes of reaction at 20° C.

[3] = biological target: T2, purified human plasmin (Homo sapiens, UniProt P00747); assay: Inhibition of plasmin; type: biochemical; details: substrate S 2403
T2 construct: purified human plasmin (2 nM, Stago); purchased Stago
Procedure: (§9) To evaluate in vitro the selectivity of these products with respect to different serine proteases of fibrinolysis and of coagulation, the same protocol was applied to purified human plasmin (2 nM, Stago), to purified human activated protein C (2 nM, Stago), to purified human activated factor X (2 nM, Stago), to tissue plasminogen activator (2 nM, Calbiochem), to purified human urokinase (2 nM, Sigma) and to purified human plasma kallikrein (2 nM, Calbiochem), using different peptidyl para-nitroanilides as substrate: <Glu-Phe-Lys-pNA (0.50 mM, S 2403, Kabi) for plasmin, N-Cbo-Arg-Gly-Arg-pNA (0.38 mM, S 2765, Kabi) for factor Xa, <Glu-Pro-Arg-pNa (0.52 mM, S 2366, Kabi) for activated protein C, H-D-Pro-Phe-Arg-pNa (0.45 mM, S 2302, Kabi) for kallikrein, H-D-Ile-Pro-Arg-pNA (0.48 mM, S 2288, Kabi), <Glu-Gly-Arg-pNA (0.56 mM, S 2444, Kabi).
as §7, §8

[4] = biological target: T3, tissue plasminogen activator (Homo sapiens, UniProt P00750); assay: Inhibition of tissue plasminogen activator; type: biochemical; details: peptidyl para-nitroanilide substrate
T3 construct: purchased Calbiochem
Procedure: as §9, §7, §8

[5] = biological target: T4, purified human urokinase (Homo sapiens, UniProt P00749); assay: Inhibition of urokinase; type: biochemical; details: peptidyl para-nitroanilide substrate
T4 construct: purchased Sigma
Procedure: as §9, §7, §8

[6] = biological target: T5, purified human activated factor X (Homo sapiens, UniProt P00742); assay: Inhibition of activated factor X; type: biochemical; details: substrate S 2765
T5 construct: purchased Stago
Procedure: as §9, §7, §8

[7] = biological target: T6, purified human plasma kallikrein (Homo sapiens, UniProt P03952); assay: Inhibition of plasma kallikrein; type: biochemical; details: substrate S 2302; read-out: IC50 Kalli
T6 construct: to purified human plasma kallikrein (2 nM, Calbiochem); purchased Calbiochem
Procedure: as §9, §7, §8

[8] = biological target: T7, purified human activated protein C (Homo sapiens, UniProt P04070); assay: Inhibition of activated protein C; type: biochemical; details: substrate S 2366
T7 construct: purchased Stago
Procedure: as §9, §7, §8

[9] = test system: dogs; assay: Anticoagulant activity p.o. in dogs, thrombin time; type: in vivo, dog; details: 5 mg/kg orally
Procedure: (§10) The products were administered orally to dogs.2 hours and 4 hours after the treatment, and blood was withdrawn via the intravenous route. The plasma is prepared, platelets counted and the thrombin time test is carried out.

[10] = test system: dogs; assay: Thrombopenia p.o. in dogs, platelet count; type: in vivo, dog; details: 5 mg/kg orally
Procedure: as §10

[11] = test system: thrombin time of rat platelet-poor plasma; assay: Anticoagulant activity: thrombin time in rat plasma; type: biochemical; details: for Rat CTT2 (concentration which multiplies the thrombin time by 2): rat plasma, 2 minutes at 37° C.
Procedure: as §1, §2, §3, §4, §5, §6

[12] = test system: OFA rats; assay: Anticoagulant activity ex vivo, oral administration (conscious rats), thrombin time; type: in vivo, rat; details: 10 mg/kg orally
Procedure: Fasted OFA rats are anesthetized with ether. The cordal artery is exposed and catheterized. The catheter is flushed with citrated (1/40) physiological solution. After installation of the catheter, the animal is placed in a restraining cage and 1.5 cm^3 of arterial blood are withdrawn into 0.109M citrate (1/9).
1 hour after the animal has awoken, the test products are administered orally at a single dose of 10 mg/kg.
Arterial blood samples (1.5 ml) are then withdrawn at 30 minutes, 60 minutes and 2 hours.
As each sample is withdrawn, 1.5 ml of physio-logical solution are reinjected into the animals.
The blood tubes are centrifuged for 15 minutes at 3000 g for preparation of the plasma. The time of onset of the coagulation phenomenon is measured after adding Prest thrombin.
The results are reproduced in the following table, and show the factors by which the thrombin time is increased.

[13] = test system: OFA rats; assay: Anticoagulant activity ex vivo, intravenous administration, activated cephalin time; type: in vivo, rat; details: 0.5 mg/kg i.v.
Procedure: OFA rats, fasted or otherwise, are anesthetized with pentobarbital (60 mg/kg i.p.). The carotid artery and the jugular vein are exposed and catheterized. The catheters are flushed with citrated (1/40) physiological solution. After installation of the catheters, a sample of 1.5 cm^3 of arterial blood is withdrawn into 0.109M citrate (1/9).
30 minutes later, the test product is administered i.v. in a volume of 1 ml.
Arterial blood samples (1.5 ml) are then withdrawn at 1 minute 30 sec and 5, 15, 30 and 60 minutes.
As each sample is withdrawn, 1.5 ml of citrated physiological solution are reinjected into the animal via the carotid.
The blood tubes are centrifuged for 15 minutes at 3000 g (preparation of plasma). 100 μl of plasma are incubated with 100 gl of activated cephalin. The time of onset of the coagulation phenomenon is measured after adding 100 μl of calcium.
The compounds of the invention, tested at a dose of 0.5 mg/kg, increase the activated cephalin time (ACT) in a dose-dependent manner. […] The increase in ACT noted with the compounds of the invention is still significant 60 minutes after their administration. The results are reproduced in the following table, and show the factors by which the coagulation time is increased.

[14] = test system: OFA rats; assay: as above; type: in vivo, rat; details: 0.5 mg/kg i.v., 15.5 min
[15] = chromogenic substrate S2238, read-out: IC50 Thrombin S2238
[16] = substrate purified human fibrinogen, read-out: IC50 Thrombin Fg

T6 sequence (P03952 391-638 limits assumed): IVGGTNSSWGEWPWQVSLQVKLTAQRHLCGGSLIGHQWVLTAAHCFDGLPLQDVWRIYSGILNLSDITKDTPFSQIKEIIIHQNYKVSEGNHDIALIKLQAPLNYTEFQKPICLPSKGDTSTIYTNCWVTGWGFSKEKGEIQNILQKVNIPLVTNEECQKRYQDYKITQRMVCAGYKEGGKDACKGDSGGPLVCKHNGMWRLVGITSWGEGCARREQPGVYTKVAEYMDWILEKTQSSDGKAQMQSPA
T6 sequence (P03952 20-390 limits assumed): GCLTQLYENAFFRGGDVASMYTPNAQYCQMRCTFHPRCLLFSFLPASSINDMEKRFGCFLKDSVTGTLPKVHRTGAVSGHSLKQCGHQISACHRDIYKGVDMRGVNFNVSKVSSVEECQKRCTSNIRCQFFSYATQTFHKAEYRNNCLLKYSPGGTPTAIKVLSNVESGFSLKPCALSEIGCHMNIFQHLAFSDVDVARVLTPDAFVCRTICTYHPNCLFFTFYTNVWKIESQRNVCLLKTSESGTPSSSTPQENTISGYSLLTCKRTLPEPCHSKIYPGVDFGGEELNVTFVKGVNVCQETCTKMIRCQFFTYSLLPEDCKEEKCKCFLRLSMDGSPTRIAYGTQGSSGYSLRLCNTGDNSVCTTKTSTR
T7 sequence (P04070 212-461 limits assumed): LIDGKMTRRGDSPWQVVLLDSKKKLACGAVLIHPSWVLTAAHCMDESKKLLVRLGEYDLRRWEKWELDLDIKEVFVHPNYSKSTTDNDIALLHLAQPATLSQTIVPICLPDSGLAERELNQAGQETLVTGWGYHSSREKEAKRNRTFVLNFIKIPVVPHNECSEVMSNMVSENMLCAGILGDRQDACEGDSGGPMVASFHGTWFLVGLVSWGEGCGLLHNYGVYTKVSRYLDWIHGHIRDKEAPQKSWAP
T7 sequence (P04070 43-197 limits assumed): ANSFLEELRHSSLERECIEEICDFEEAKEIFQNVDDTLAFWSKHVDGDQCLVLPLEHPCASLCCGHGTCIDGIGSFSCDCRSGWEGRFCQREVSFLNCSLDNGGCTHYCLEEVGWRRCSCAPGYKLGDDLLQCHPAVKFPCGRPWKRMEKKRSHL
T5 sequence (P00742 235-488 limits assumed): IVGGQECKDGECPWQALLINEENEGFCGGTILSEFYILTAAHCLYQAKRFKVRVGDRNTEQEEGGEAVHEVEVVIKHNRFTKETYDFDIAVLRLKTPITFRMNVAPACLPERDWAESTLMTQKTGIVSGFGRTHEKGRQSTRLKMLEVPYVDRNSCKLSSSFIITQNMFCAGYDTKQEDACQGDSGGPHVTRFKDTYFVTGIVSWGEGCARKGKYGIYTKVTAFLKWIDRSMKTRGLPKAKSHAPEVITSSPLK
T5 sequence (P00742 41-179 limits assumed): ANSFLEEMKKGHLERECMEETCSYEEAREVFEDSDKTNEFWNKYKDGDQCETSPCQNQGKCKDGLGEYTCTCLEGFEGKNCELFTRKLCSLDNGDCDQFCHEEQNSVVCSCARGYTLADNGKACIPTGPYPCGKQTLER
T2 sequence (P00747 581-810 limits assumed): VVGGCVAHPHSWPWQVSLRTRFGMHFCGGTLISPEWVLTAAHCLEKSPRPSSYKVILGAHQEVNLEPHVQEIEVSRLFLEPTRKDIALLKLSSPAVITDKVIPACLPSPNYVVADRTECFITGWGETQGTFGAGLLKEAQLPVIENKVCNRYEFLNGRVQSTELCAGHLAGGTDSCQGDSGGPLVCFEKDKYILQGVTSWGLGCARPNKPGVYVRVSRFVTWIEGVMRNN
T2 sequence (P00747 97-580 limits assumed): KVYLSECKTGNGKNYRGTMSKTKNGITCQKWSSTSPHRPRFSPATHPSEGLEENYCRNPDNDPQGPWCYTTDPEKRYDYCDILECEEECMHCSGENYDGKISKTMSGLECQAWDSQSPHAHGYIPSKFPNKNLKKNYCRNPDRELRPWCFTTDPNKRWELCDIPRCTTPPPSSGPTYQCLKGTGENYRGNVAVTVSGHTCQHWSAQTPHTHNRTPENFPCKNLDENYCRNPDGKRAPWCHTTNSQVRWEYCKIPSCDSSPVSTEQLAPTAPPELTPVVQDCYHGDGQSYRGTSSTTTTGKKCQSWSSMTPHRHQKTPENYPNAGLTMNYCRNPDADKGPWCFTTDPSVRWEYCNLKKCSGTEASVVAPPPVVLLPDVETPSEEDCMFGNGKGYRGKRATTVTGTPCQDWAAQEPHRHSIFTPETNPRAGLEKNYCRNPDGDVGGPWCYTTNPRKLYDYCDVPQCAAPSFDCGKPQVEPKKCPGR
T3 sequence (P00750 36-562): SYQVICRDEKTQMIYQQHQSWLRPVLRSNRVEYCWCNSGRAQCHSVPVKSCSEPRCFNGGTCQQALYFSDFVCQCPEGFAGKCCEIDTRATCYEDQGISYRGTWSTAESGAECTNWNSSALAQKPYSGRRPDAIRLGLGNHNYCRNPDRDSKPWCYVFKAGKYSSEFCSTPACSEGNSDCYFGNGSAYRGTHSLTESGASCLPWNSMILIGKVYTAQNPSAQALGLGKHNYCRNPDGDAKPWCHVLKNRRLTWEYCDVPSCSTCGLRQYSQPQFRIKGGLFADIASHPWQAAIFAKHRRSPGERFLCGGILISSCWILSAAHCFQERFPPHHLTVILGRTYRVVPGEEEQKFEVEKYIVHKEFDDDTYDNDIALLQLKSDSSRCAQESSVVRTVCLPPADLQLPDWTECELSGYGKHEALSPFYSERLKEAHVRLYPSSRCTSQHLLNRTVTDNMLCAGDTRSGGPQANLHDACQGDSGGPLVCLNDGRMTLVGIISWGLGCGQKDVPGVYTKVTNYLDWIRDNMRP

| SMILES | Man CTT2 (concentration which multiplies the thrombin time by 2) [1] [µM] | pIC50 [2, 15] | pIC50 [2, 16] | selectivity with respect to the serine proteases of coagulation and of fibrinolysis compared with DUP 714 [2] | potency on human thrombin compared with DUP 714 [2] | pIC50 [3] | pIC50 [4] | pIC50 [5] | pIC50 [6] | pIC50 [7] | pIC50 [8] | Increase factor TT ([9]; 2 hr) | Increase factor TT ([9]; 4 hr) | Change in platelet count (% of control) ([10]; 2 hr) [%] | Change in platelet count (% of control) ([10]; 4 hr) | Rat CTT2 (concentration which multiplies the thrombin time by 2) [11] [µM] | factor by which the coagulation time (ACT) is increased ([13]; 5 min) | factor by which the coagulation time (ACT) is increased ([13]; 15 min) | factor by which the coagulation time (ACT) is increased ([13]; 30 min) | factor by which the coagulation time (ACT) is increased ([13]; 60 min) | other results |
| --- | --- | --- | --- | --- | --- | --- | --- | --- | --- | --- | --- | --- | --- | --- | --- | --- | --- | --- | --- | --- | --- |
| CC(=O)N[C@H](Cc1ccccc1)C(=O)N(CC(=O)N[C@@H](CCCN=C(N)N)B(O)O)C1CCCC1.CC(=O)O [Ex. 28, 1-(R)-{[Ac-(R)Phe-(N-cyclopentyl)Gly]amino}-4-guanidinobutylboronic acid acetate] | 0.19 | 8.70 | 9.34 | greater selectivity | more potent inhibitors of human thrombin than the reference compound | 6.35 | 7.33 | 5.74 | 6.65 | 7.04 | 7.09 | 11 | 2 | -4 | +1% |  |  |  |  |  |  |
| CC(=O)NC(Cc1ccccc1)C(=O)N1C2CCC(CC2)C1C(=O)NC(CCCNC(=N)N)B(O)O.CC(=O)O (mixture of isomers) [Ex. 23, 1-(R)-[(Ac-(RS)Phe-Abo)amino]-4-guanidinobutylboronic acid acetate] | 0.11 |  |  |  |  |  |  |  |  |  |  |  |  |  |  | 0.17 |  |  |  |  | concentration for doubling the thrombin time relative to DUP 714 ([11]; rats): one half |
| CC(=O)NC(Cc1ccccc1)C(=O)N1C(C(=O)NC(CCCNC(=N)N)B(O)O)CC2CCCCC21.CC(=O)O (mixture of isomers) [Ex. 3, 1-(R)-[(Ac-(RS)Phe-Phi)amino]-4-guanidinobutylboronic acid acetate] | 0.07 |  |  |  |  |  |  |  |  |  |  |  |  |  |  | 0.23 | 4.7 | 3.6 | 2.6 | 2.0 | factor by which concentration for doubling the thrombin time is less than DUP 714 ([1]; humans): 2.5; factor by which the thrombin time is increased ([12]; 0.5 hours): 7.7; factor by which the thrombin time is increased ([12]; 1 hour): 7.1; factor by which the thrombin time is increased ([12]; 2 hours): 5.6; factor by which the coagulation time (ACT) is increased [14]: 7.3 |
| CC(=O)NC(Cc1ccccc1)C(=O)N(CC(=O)N[C@@H](CCCNC(=N)N)B(O)O)C1CCCC1.CC(=O)O (mixture of isomers) [Ex. 27, 1-(R)-{[Ac-(RS)Phe-(N-cyclopentyl)Gly]amino}-4-guanidinobutylboronic acid acetate] | 0.20 | 8.60 | 9.10 | greater selectivity |  | 6.13 | 7.42 | 5.50 | 5.76 | 6.98 | 6.83 | 11 | 3 | -4 | -1% |  | 2.3 | 1.7 | 1.5 | 1.3 | factor by which the coagulation time (ACT) is increased [14]: 5 |
| CC(=O)N[C@H](Cc1ccccc1)C(=O)N(CC(=O)N[C@@H](CCCNC(=N)N)B(O)O)C1CCC1.CC(=O)O [Ex. 25, 1-(R)-{[Ac-(R)Phe-(N-cyclobutyl)Gly]amino}-4-guanidinobutylboronic acid acetate] |  | 8.70 | 9.35 | greater selectivity | more potent inhibitors of human thrombin than the reference compound | 6.09 | 7.85 | 5.79 | 6.45 | 7.12 | 6.68 |  |  |  |  |  |  |  |  |  |  |
